The values below come from article PMC11476419, “Analysis of Punicalin and Punicalagin Interaction with PDIA3 and PDIA1” (International Journal of Molecular Sciences, 2024).

Molecules are shown by their SMILES.

For orientation: IC50 means the concentration that gives 50% inhibition. Low values mean greater potency, high ones weaker potency.

The target of test [1] is T1, PDIA3 (Homo sapiens, UniProt P30101).
T1 construct: The mature recombinant form (devoid of the N-terminal presence) of the human PDIA3 protein was expressed and purified; made in house
T1 sequence (P30101 25-505): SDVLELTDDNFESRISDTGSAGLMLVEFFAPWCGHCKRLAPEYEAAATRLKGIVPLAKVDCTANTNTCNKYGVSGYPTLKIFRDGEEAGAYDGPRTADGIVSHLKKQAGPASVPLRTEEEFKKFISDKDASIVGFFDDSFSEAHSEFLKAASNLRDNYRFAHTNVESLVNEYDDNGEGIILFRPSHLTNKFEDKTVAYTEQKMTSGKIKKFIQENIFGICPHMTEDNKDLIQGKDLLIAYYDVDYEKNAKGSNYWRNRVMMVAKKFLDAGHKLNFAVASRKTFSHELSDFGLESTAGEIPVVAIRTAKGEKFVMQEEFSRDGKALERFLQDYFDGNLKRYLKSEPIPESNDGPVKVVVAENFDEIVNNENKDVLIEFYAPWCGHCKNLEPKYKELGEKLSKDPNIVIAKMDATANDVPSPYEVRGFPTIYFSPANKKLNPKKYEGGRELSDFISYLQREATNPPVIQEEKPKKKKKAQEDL
Put plainly: Glutathione reduction assay (di-E-GSSG), disulfide reductase activity. The conditions noted are these: di-E-GSSG substrate, PDIA3 20 nM, reducing conditions. In kind it is biochemical. Here is the method:
(§1) The enzymatic activity of PDIA proteins was evaluated by glutathione reduction and insulin turbidity assays. PDIA1 and PDIA3 are proteins capable of catalyzing oxidation-reduction and isomerization reactions through thiol groups and disulfide bonds. Because the action of punicalagin on the reductase activity of the two proteins was previously evaluated by glutathione reduction assay, the same assay was repeated using punicalin to compare the effect of both molecules on PDIs.
(§2) Di-eosin glutathione disulfide (di-E-GSSG) was synthesized by the reaction of eosin isothiocyanate with oxidized glutathione (GSSG) and used as a fluorogenic substrate of PDIs to monitor disulfide reductase activity according to the method of Raturi and Mutus, with some modifications. Protein activity was evaluated by monitoring the emission fluorescence increase (λem = 545 nm and λex = 525 nm), and the effect of punicalin (concentration ranging from 2 to 50 µM) was tested.
(§3) In both assays, the inhibition constants were extrapolated by GraphPad Prism 8.0 software (GraphPad Software, San Diego, CA, USA), plotting the obtained data as logarithm dose–response curves.

The target in the next test is T2, PDIA1 (Homo sapiens, UniProt P07237).
T2 construct: The mature human PDIA1 with an N-terminal His6x-tag was expressed and purified; His6 (N); made in house
Described as above. It is filed as biochemical. Particulars: di-E-GSSG substrate, PDIA1 20 nM, reducing conditions. Here is the method: as §1, §2, §3

Another test deals with PDIA3 in U87 MG cells. Briefly: Cellular distribution of PDIA3 by immunofluorescence. In kind it is cell-based, human. Particulars: 5 µM for 48 h and 20 µM for 24 h. As for the experimental part:
(§4) Possible changes in the cellular distribution of PDIA3 were previously studied by immunofluorescence assay. Recently, Bilches Medinas et al. reported that a PDIA3 mutation with the loss of functions induced protein aggregation. […] T98G and U87 MG cells were treated with 5 µM and 20 µM of punicalin for 48 h and 24 h, respectively (Figure 8).
(§5) T98G and U-87 MG cells were seeded on coverslips into 6-well plates (200,000 cells/well) and incubated for 24 h and 48 h in the presence of 5 µM and 20 µM punicalagin/punicalin. Cells grown on coverslips were washed with PBS, fixed with 3.7% formaldehyde for 20 min, rinsed with PBS, and then permeabilized with cold methanol (−20 °C) for 5 min. Immunofluorescence analysis was performed according to Paglia et al. using a specific primary antibody against PDIA3 (Millipore, Milan, Italy, cat. ABE1032). Coverslips were mounted on glass microscope slides with DuolinkTM mounting medium and examined using a fluorescence microscope (Leica AF6000 Modular System, Leica, Milan, Italy) with a 63× oil immersion objective. Samples were captured under the same acquisition parameters.

The next test concerns PDIA3 in T98G cells. The test is described as above. In kind it is cell-based, human. Particulars: 5 µM for 48 h and 20 µM for 24 h. Here is the method:
as §4, §5

Test [2] concerns the target T1, PDIA3. Briefly: Insulin turbidity assay, disulfide reductase activity. Particulars: insulin substrate, PDIA3 1600 nM, reducing conditions. It is filed as biochemical. As for the experimental part:
To further evaluate the inhibitory effect of punicalin and punicalagin on the enzymatic activity of the two proteins, we performed a different assay using insulin, a physiologically more appropriate substrate. The results obtained are reported in Figure 4 and show again a lesser inhibitory effect of punicalin compared to punicalagin, as observed with the glutathione-based assay.
PDI disulfide reductase activity was assayed by measuring the reduction of insulin catalyzed by PDIs with DTT. A 50 μM stock solution of each PDI was reduced using TCEP (5 mM final concentration) for 90 min at room temperature. Aliquots of the stock solution were diluted in the incubation mixture (PDIA1 1.6 µM and PDIA3 3.2 µM) containing sodium phosphate buffer (100 mM sodium phosphate, 2 mM EDTA, pH 7.0) added with punicalin/punicalagin (concentration ranging from 0 to 50 µM) and incubated at 37 °C for 1 h. After incubation, an equal volume of the 2× reaction mixture (consisting of DTT 50 μM and human insulin 0.32 mM) was added. Protein activity was evaluated by monitoring the increase in turbidity of the solutions at 600 nm.
as §3

T2 sequence (P07237 18-508): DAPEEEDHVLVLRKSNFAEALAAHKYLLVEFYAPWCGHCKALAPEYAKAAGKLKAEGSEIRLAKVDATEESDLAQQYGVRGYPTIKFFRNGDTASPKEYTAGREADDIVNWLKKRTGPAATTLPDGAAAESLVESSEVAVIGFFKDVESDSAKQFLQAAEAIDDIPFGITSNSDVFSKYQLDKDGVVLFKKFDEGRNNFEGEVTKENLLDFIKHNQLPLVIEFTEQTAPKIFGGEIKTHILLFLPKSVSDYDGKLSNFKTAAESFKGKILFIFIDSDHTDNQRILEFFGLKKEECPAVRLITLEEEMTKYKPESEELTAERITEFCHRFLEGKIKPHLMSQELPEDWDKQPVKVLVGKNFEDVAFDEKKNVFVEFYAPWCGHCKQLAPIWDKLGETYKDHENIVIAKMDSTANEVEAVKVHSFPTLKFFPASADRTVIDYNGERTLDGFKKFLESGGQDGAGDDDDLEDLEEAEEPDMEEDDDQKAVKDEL

For `O=C1OC[C@H]2OC(O)[C@H](O)[C@@H](O)[C@@H]2OC(=O)c2cc(O)c(O)c(O)c2-c2c(O)c(O)c3oc(=O)c4c(c(O)c(O)c5oc(=O)c2c3c54)-c2c1cc(O)c(O)c2O` (mixture of isomers) [Punicalin, punicalin], the IC50 on PDIA3 [1] is 10.7 µM; against PDIA1, 58.3 µM; against PDIA3 [2] it was 28.7 µM. Also, the “change in cellular distribution of PDIA3” value with PDIA3 in U87 MG cells was “marked change in the fluorescence pattern and a cellular redistribution of PDIA3”; in the test on PDIA3 in T98G cells, “marked change in the fluorescence pattern and a cellular redistribution of PDIA3”.
